Consider seven compounds from ChEMBL document CHEMBL3632460, “Discovery of a Novel Series of Imidazo[1,2-a]pyrimidine Derivatives as Potent and Orally Bioavailable Lipoprotein-Associated Phospholipase A2 Inhibitors” (J Med Chem, 2015).

The source made the active and inactive calls. The rule behind the calls is not given here.

Series [1] in a line: in vitro. Particulars: Wistar, rat, liver S9 fractions.
The target of series [2] is T1, Platelet-activating factor acetylhydrolase (Mus musculus) (UniProt Q60963).
T1 sequence (whole entry): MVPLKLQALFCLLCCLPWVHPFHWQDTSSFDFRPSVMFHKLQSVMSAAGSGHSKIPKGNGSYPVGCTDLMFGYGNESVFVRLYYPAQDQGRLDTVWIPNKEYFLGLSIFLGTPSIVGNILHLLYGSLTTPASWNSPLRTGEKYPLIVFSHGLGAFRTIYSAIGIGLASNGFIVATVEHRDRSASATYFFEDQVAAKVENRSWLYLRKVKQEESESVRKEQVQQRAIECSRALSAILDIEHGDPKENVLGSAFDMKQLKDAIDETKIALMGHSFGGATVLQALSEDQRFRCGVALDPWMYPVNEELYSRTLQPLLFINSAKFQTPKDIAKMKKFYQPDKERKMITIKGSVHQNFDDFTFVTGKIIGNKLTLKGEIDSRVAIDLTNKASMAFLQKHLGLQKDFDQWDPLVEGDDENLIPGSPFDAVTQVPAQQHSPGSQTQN
The note with it: Plasma, at 1 µM.
Description: Inhibition of Lp-PLA2 in mouse plasma at 1 uM using 2-thio-PAF substrate after 10 mins

A short description of series [3]: in vitro. The note with it: human, liver S9 fractions.
Series [4] is described as follows: in vivo. The note with it: Sprague-Dawley, rat, po, 25 mg/kg.
Description: AUC (0 to infinity) in Sprague-Dawley rat at 25 mg/kg, po after 48 hrs by LC-MS method
The species entered for series [5] is Rattus norvegicus. The note with it: Sprague-Dawley, 25 mg/kg.
Description: In vivo inhibition of Lp-PLA2 in Sprague-Dawley rat at 25 mg/kg, po measured over 24 hrs
Series [6] can be described thus: in vivo. The note with it: Sprague-Dawley, rat, po, 25 mg/kg. This is another data set of the same source.
Description: Terminal half life in Sprague-Dawley rat at 25 mg/kg, po after 48 hrs by LC-MS method
Series [7] deals with Rattus norvegicus. Briefly: In vivo inhibition of Lp-PLA2 in Sprague-Dawley rat at 25 mg/kg, po after 5 hrs. The series is classed as functional.
Series [8] is filed under the species Rattus norvegicus. Particulars: Sprague-Dawley, Plasma, 10 nM.
Description: Inhibition of Lp-PLA2 in Sprague-Dawley rat plasma at 10 nM using 2-thio-PAF substrate after 10 mins
A short description of series [9]: in vivo. Particulars: Sprague-Dawley, rat, po, 25 mg/kg. This is another data set of the same source.
Description: Cmax in Sprague-Dawley rat at 25 mg/kg, po after 48 hrs by LC-MS method
In series [10] the target is T1, Platelet-activating factor acetylhydrolase (Mus musculus). Particulars: Plasma, at 100 nM.
A short description of series [11]: in vitro. The note with it: Wistar, rat, liver S9 fractions. The source holds these as a separate data set.
Series [12] can be described thus: in vitro. Particulars: human, liver S9 fractions. This is another data set of the same source.
The nature of series [13]: Terminal half life in Sprague-Dawley rat at 50 mg/kg, po after 48 hrs by LC-MS method. Format: ADME, organism-based. Particulars: in vivo, read-out: beta t1/2 (converted).
Series [14] can be described thus: AUC (0 to infinity) in Sprague-Dawley rat at 50 mg/kg, po after 48 hrs by LC-MS method. The series is classed as ADME, organism-based. Set-up: dose 50 mg/kg, route oral, time infinity. The note with it: in vivo.
Series [15] is described as follows: Cmax in Sprague-Dawley rat at 50 mg/kg, po after 48 hrs by LC-MS method. The series is classed as ADME, organism-based. More on the design: dose 50 mg/kg, route oral. Particulars: in vivo.

Regarding `Fc1cc(COc2ccn3c(-c4cncnc4)cnc3n2)cc(F)c1Oc1ccc(Cl)c(C(F)(F)F)c1`, the half-life at 0.1 µM in series [1] worked out at 3.27 h; in series [3], 3.53 h. Also, the inhibition (as a rule, the relative decrease from the control value, in per cent) in [2] turned out to be 8%.

As to `Fc1cc(COc2ccn3c(-c4cncnc4)cnc3n2)ccc1Oc1ccc(Cl)c(C(F)(F)F)c1`, the half-life at 0.1 µM came to 2.82 h in [1] and 5.52 h in series [3]. Besides, the inhibition in series [2] was determined as 13%; in series [8], 11%. Besides, the AUC(0-inf) (as a rule, the area under the concentration-time curve extrapolated to infinity) at 48 h in [4] came to 78100 ng·h/mL. Besides, in [5], the inhibition entry is “Active”. The compound further showed a half-life at 48 h in series [6] of 13.3 h. Also, in series [7], the inhibition in vivo (in general, the percentage by which the read-out fell short of the control) at 25 mg/kg amounted to 75%. For the same compound, in [9], the peak level (Cmax at 48 h) was 2600 ng/mL.

As for `FC(F)(F)c1cc(Oc2ccc(COc3ccn4c(-c5cncnc5)cnc4n3)cc2)ccc1Cl`, the half-life at 0.1 µM in series [1] came out at 5.8 h; in series [3], 1.93 h. In addition, the inhibition in series [2] stood at 56%; in series [8], 10%; in [10] it was 10%. This compound displayed an AUC(0-inf) at 48 h in series [4] of 88000 ng·h/mL. In addition, the inhibition result in series [5] is “Active”. In [6], this compound gave a half-life at 48 h of 9.44 h. This compound also yielded an inhibition in vivo at 25 mg/kg in [7] of 75%. Moreover, the highest concentration (Cmax) (commonly the peak of the concentration-time curve) at 48 h in series [9] was 3520 ng/mL.

For `FC(F)(F)c1cc(Oc2ccc(CCOc3ccn4c(-c5cncnc5)cnc4n3)cc2)ccc1Cl`, the half-life at 0.1 µM came out at 1.83 h in series [1] and 0.7 h in [3]. In addition, the inhibition was found to be 53% in [2] and 2% in series [10]. In addition, the values for the CLint scaled at 0.1 µM in series [11] and in series [12] were 34.3 mL/min/kg and 55.1 mL/min/kg, respectively.

As to `CCN(CC)CCN(Cc1ccc(-c2ccc(C(F)(F)F)cc2)cc1)C(=O)Cn1c(SCc2ccc(F)cc2)nc(=O)c2c1CCC2` [DARAPLADIB], the inhibition in [2] was 99%; in series [10], 96%. In series [13], the half-life is 11.5 h. Moreover, in series [14], the total exposure AUC(0-inf) is 2110 ng·h/mL. The compound also displayed a Cmax in series [15] of 150 ng/mL.

With `Cn1cc(-c2cnc3nc(OCc4ccc(Oc5ccc(Cl)c(C(F)(F)F)c5)cc4)ccn23)cn1`, the inhibition in series [2] was found to be 28%; in series [8], 13%. This compound also returned a half-life at 0.1 µM in [3] of 3 h.

Consider `N#Cc1cc(COc2ccn3c(-c4cncnc4)cnc3n2)ccc1Oc1ccc(Cl)c(C(F)(F)F)c1`, for which the half-life at 0.1 µM came to 0.667 h in series [1] and 1.77 h in series [3]. The inhibition was determined as 0% in series [2] and 14% in [8]. The same compound yielded an AUC(0-inf) at 48 h in series [4] of 16100 ng·h/mL. In series [6], this compound gave a half-life at 48 h of 3.24 h. Besides, the Cmax at 48 h in series [9] amounted to 1400 ng/mL.
